The target in experiment [1] is T1, LPL (native bovine milk protein) inactivated by ANGPTL4 (Bos taurus, UniProt P11151).
T1 construct: from tissue; host or cells: bovine milk (LPL); E. coli (GST-ANGPTL4)
T1 sequence (P11151 29-478): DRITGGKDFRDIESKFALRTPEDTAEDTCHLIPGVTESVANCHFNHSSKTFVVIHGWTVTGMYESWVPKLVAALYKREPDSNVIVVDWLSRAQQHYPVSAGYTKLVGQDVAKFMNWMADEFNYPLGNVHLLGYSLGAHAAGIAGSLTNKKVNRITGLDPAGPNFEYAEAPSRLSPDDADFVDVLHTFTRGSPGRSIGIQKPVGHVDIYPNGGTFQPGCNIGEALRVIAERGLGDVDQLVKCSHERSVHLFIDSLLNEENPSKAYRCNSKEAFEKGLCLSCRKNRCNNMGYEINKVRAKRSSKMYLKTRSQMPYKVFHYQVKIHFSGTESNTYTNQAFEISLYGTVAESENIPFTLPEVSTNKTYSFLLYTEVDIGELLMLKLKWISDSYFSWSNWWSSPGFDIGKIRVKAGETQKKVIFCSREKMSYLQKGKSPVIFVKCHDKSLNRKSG
The experiment is described as follows: LPL ANGPTL4 protection assay (LPL fluorescence assay, resorufin butyrate substrate). It counts as biochemical. To be noted: LPL activation activity, LPL 2.5 nM, ANGPTL4 20 nM. Here is the method:
LPL is inactivated by angiopoietin-like 4 (ANGPTL4). Compounds of the present disclosure were for activity using the following protection assay. Briefly, the assay was performed in a black opaque 96-well microtiter plate with final volume of 100 μL using a buffer consisting of 50 mM HEPES (pH 7.2), 150 mM NaCl and 0.03% Triton X-100. Compounds were prepared as 10 mM stocks in DMSO, with subsequent serial dilutions performed in DMSO. Two microliters of test compounds were added to the microtiter plate, followed by 49-PL of LPL (native bovine milk protein affinity purified using heparin-affinity chromatography) in assay buffer. The plate contents were mixed using an orbital shaker and allowed to incubate for 5 minutes at room temperature. The enzymatic assay was initiated by the addition of a mixture of 49 μL of 50 μM resorufin butyrate (Santa Cruz #sc-208302; prepared from a 10 mM DMSO stock) and ANGPTL4 (N-terminal GST construct consisting of residues 26-164 expressed in E. coli) in assay buffer. The final concentrations of LPL and ANGPTL4 were 2.5 nM and 20 nM, respectively. The assay was allowed to proceed at 30° C. for 25 minutes with kinetic monitoring (Ex560/Em585) followed by an endpoint reading which was used for analysis.
Data was analyzed in Graphpad Prism (version 6.0, GraphPad Software, Inc., San Diego, CA) using a variable slope four parameter fit of the equation:
Y=Bottom+(Top-Bottom)/(1+10^((Log EC50−X)*HillSlope)),
where X is the concentration of test compound, Y corresponds to the amount of product expressed in relative fluorescence units, and Top and Bottom refer to the plateaus of the curve. Percent activation (protection) of test compound was calculated relative to zero effect wells (ZEW; LPL, ANGPTL4 and substrate) and maximum effect wells (MEW; LPL plus substrate): ((test well−ZEW)/(MEW−ZEW))*100.

Another experiment relates to C57BL/6 mice. The experiment is described as follows: Oral fat tolerance test (postprandial triglyceridaemia after olive oil bolus). Type of experiment: in vivo. To be noted: overnight-fasted C57BL/6 mice, compound IP 1 h before 10 mL/kg olive oil, bled at 1, 2 and 3.5 h. As for the experimental part:
To examine to effects of test compounds on postprandial triglycerdemia, 5-7 week old C57BL/6 mice were fasted overnight (18 hours) on non-nutritive bedding (Alpha-Dri). Following the overnight fast, the mice are bled via retro-orbital sinus (25 μL) using microcapillaries (t-1 hr sample). The LPL activator test compound was then administered intraperitoneally (IP) in a dose volume of 10 ml/kg. One hour later the mice were bled for the t=0 timepoint. The mice were then immediately dosed with a 10 mL/kg oral bolus of olive oil. The mice were subsequently bled at 1-, 2-, and 3.5-hours post-olive oil administration.
Whole blood samples were collected into tubes containing 0.125% EDTA solution in saline. Diluted plasma samples were analyzed for triglyceride levels using Infinity Triglyceride reagent (Thermo) on a microtiter plate. Briefly, 10 μL of diluted sample was added the plate. 200 μL of the reagent was added and the plate was incubated for 10 minutes at 37° C. The plate was then read at 550 nm on a Molecular Devices M5 Spectrophotometer (San Jose, CA). The concentration of triglycerides in the sample was determined using a standard curve made using a dilution of triglyceride standard (Sigma-Aldrich, St. Louis, MO) using the Softmax software from Molecular Devices. All graphing and subsequent area under-the-curve and statistical analysis (Student's t Test) is performed using GraphPad Prism (version 8.0, GraphPad Software, Inc., San Diego, CA).

As usually defined, the EC50 is the concentration at which the effect is half-maximal. Lower therefore signals greater potency. In the case of `O=C(O)Cc1cc(F)ccc1NC(=O)c1ccc(N2CCCCC2)c(NC(=O)c2nn(CC(F)(F)F)c3ccccc23)c1` [Compound 158, 2-(5-fluoro-2-(4-(piperidin-1-yl)-3-(1-(2,2,2-trifluoroethyl)-1H-indazole-3-carboxamido)benzamido)phenyl)acetic acid], in experiment [1], the EC50 came out at 1010 nM. Also, the “hypertriglyceridemia response to oral olive oil gavage (plasma triglycerides)” value in the experiment on C57BL/6 mice was “blunts hypertriglyceridemia response in a dose-dependent fashion”.

The values are drawn from patent US20250092014A1, “COMPOUNDS AND METHODS OF ACTIVATING LIPOPROTEIN LIPASE” (Metrea Biosciences, Inc., priority 2021, published 2025).
